What was measured:
primary rat hepatocytes = assay: In vitro cytotoxicity study on primary rat hepatocytes (MTS); format: cell-based; details: Hepatocyte, 20 hours treatment with 0.4, 2, 10 and 50 μM, absorbance at 490 nm, read-out: Average EC50 (hepatocytes from at least 2 rats)
Experimental: Male SD rats having body weights of approximately 200 g were used for the study. Hepatocytes were freshly isolated and seeded with 15,000 cells/well in 96 wells coated with 100 μl collagen. The hepatocytes were cultured for 3-4 hours with HCM Bulletkit medium (Clonetics #CC-3198) then treated with 0.4 μM, 2 μM, 10 μM and 50 μM of a test compound for 20 hours. Flepatocytes were then incubated with MTS reagent (Promega #G5421) for 2-3 hours and absorbance in each well at […] was measured to determine the number of living cells in each well (the absorbance at 490 nm is directly proportional to the number of living cells in the well). The EC50 for each test compound was calculated with the Excel Xlfit wizard program based on the optical density values compared with vehicle treated cells.

Male SD rats = details: rat, in vivo
Experimental: Male SD rats weighing 350-420 g were anesthetized with 2-3% isoflurane. The femoral artery and vein were catheterized and connected to a mean arterial blood pressure (MAP) and heart rate (HR) monitor and a continuous intravenous infusion pump. Under anesthesia, MAP and HR were recorded 10-20 minutes prior to and during the continuous intravenous infusion of test compounds for 60-70 minutes. The infusion rate, 0.14-0.16 ml/kg/minute, was determined on the basis of vehicle tolerance. The infusion doses, 1.0-1.25 mg/kg/minute, were selected, depending upon the solubility of the compound and effects on MAP and HR of the positive control compounds at the lethal dose. The maximal effective dose or lethal dose of test compounds were determined accordingly.

[1] = system: C57BLKS/J-m+/+Lepr db male animals; assay: Glucose reduction by Compound 9 in db/db mouse model (Example 112); format: in vivo; details: 3.5 hours after administration
Experimental: C57BLKS/J-m+/+Lepr db male animals (8 weeks old) were purchased from the Jackson Laboratory (Bar Harbor, Me.) in this study. All animals were acclimated for at least one week, and randomized for equivalent mean blood glucose on day 0. Animals were divided into either vehicle or treatment groups (n=8/group). Compound 9 was formulated in 0.5% methylcellulose (ps400) and administered by oral gavage at 50 mg/kg once daily for 7 consecutive days. Blood glucose was monitored using One Touch Basic glucose monitor (Abbott) 3.5 hours after administration of test compound on day 3 and 7.

male ob/ob mice = assay: Oral glucose tolerance test in glucose-loaded ob/ob mice (Example 114, FIG. 1); format: in vivo, mouse
Experimental: Blood glucose was measured at 0, 30, 120 and 240 min post-glucose loading. Metformin and rosiglitazone were used as references.

C57BLKS/J-m+/+Lepr db = assay: Glucose reduction, Compound 36 in combination with rosiglitazone, db/db mice, 6 days (Example 117); format: in vivo, mouse; details: for Serum Glucose % Normalized Reduction: relative to vehicle
Experimental: C57BLKS/J-m+/+Lepr db were obtained from the Institute for Animal Reproduction (IAR, Japan), and randomized for equivalent mean blood glucose on day 0 (n=8/group). One group served as the vehicle control (0.5% methyl cellulose). […] Group 3 received 0.5 mg/kg rosiglitazone. […] All agents were administered once daily for 6 consecutive days starting on day 1. […] Post-treatment serum glucose value was expressed as percent pre-treatment from respective pre-treatment values, and percent reduction relative to vehicle control was calculated by subtracting from the percent pre-treatment of vehicle control.

[2] = system: NIDDM male mice (C57BLKS/J-m+/+Lepr db); assay: 7 day baseline glucose test in db/db mice (Example 119); format: in vivo, mouse; details: for Serum Glucose % Pre-Treatment Baseline: 3 hours after dose
Experimental: Non-insulin dependent diabetic mellitus (NIDDM) male mice (C57BLKS/J-m+/+Lepr db), weighing 50±5 g and 9-10-week old, were used. The animals were housed in Individually Ventilated Cages Racks (IVC Racks) throughout the experiment and all animals were allowed free access to sterilized Lab chow and sterilized distilled water. Compounds 39, 41 and 64 at 50 mg/kg as well as vehicle (0.5% Methylcellulose) were administered orally once daily for 7 consecutive days to test animals after the first blood sampling (pre-treatment). The post-treatment blood samples were withdrawn from the orbital sinus at 3 hours after administration of daily dose on day 3 and on day 7. Serum glucose levels in the pre- and post-treatment were determined by enzymatic (Mutaratase-GOD) methods. Post-treatment serum glucose values were expressed in percentage of respective pre-treatment values. Percentage reductions were expressed in percentage of pre-treatment values of test substance relative to percentage of pre-treatment values of vehicle. All percentages were calculated and unpaired; Student's t test was then applied to establish significant difference between the test compound-treated and vehicle control groups. Differences are considered significant at P<0.05.

db/db mice = assay: Combination studies of rosiglitazone or metformin with Compound 39, 7 days (Example 121); format: in vivo, mouse
Experimental: Serum glucose levels in the pre-and post-treatment were determined enzymatically (Mutaratase-GOD). Post-treatment serum glucose values were expressed in percentage of respective pre-treatment values. Percentage reductions were expressed in percentage of pre-treatment values of test substance relative to percentage of respective pre-treatment values of vehicle. All percentages were calculated and unpaired; Student's t test was then applied to establish significant difference between the test compound-treated and vehicle control groups. Differences are considered significant at P<0.05.

[3] = system: male db/db mice (BKS.Cg-m+/+Lepr db/J); assay: Intraperitoneal glucose tolerance test (IPGTT) in db/db mice (Example 122, FIGS. 3 and 5); format: in vivo, mouse; details: Mus musculus, po, 0.75 h, read-out: Ave. % Change in Glucose Intolerance at +45 min
Experimental: Six to eight week old, male db/db mice (BKS.Cg-m+/+Lepr^db/J; stock number 000642), homozygous for a mutation in the gene encoding the leptin receptor, were purchased from The Jackson Laboratory (Bar Harbor, Me. USA). Animals were singly housed in conventional caging on a 12 hr/12 hr light/dark cycle, acclimated for at least five days prior to use and fed normal laboratory chow ad libitum between experiments. Studies were conducted with animals between seven and fourteen weeks of age. Animals were used for a maximum of five consecutive studies, with a minimum recovery period of five days between studies.
To perform an IPGTT or OGTT, db/db mice were fasted overnight beginning on day 0 at −17.5 to −18.5 hrs relative to the glucose dose on day 1 (all time points below are stated relative to the time of an intraperitoneal or oral glucose dose on day 1). At −4.5 hrs, animals were weighed, blood was collected by tail vein lancing and fasted blood glucose levels determined using a hand-held glucometer (MediSense Precision Xtra or LifeScan OneTouch Ultra). Animals were randomized into dosing groups of 6-7 animals, with each group having a similar average fasted blood glucose level. At −3 hr, animals were dosed with vehicle alone, a test compound or metformin by oral gavage at 5 ml/kg body weight. […] Blood glucose levels were determined as above at −45 min and +45 min, and also +90 min and/or +150 min (see FIG. 3 and the Table in this section). Alternatively, blood glucose levels were determined at −30 min, +30 min, +60 min and +120 min (see FIGS. 4 and 5).
Compound doses were adjusted to be the molar equivalents of 50 mg/kg of Compound 39. The percent change in blood glucose between −45 min and a time point, y, after glucose dosing (e.g., +45 min, +150 min, ect.) was calculated for each animal using formula 1: [formula]
The percent change in blood glucose between −45 min and a time point, y, after glucose dosing was calculated for each animal using formula 1.
Average percent change in glucose intolerance was calculated using Formula 2, as noted in the table below. […]

[4] = Day 3, 50 mg/kg orally once daily
[5] = Day 7, 50 mg/kg orally once daily
[6] = Day 3, metformin 150 mg/kg orally daily
[7] = Day 7, metformin 150 mg/kg orally daily
[8] = Day 3, rosiglitazone 0.5 mg/kg orally daily
[9] = Day 7, rosiglitazone 0.5 mg/kg orally daily

SMILES: CCOC(=O)C1=C(COCCN)NC2=C(C(=O)CC(C)(C)C2)[C@H]1c1cccnc1 [39 R-enantiomer, (+)-(R)-2-(2-Amino-ethoxymethyl)-7,7-dimethyl-5-oxo-4-pyridin-3-yl-1,4,5,6,7,8-hexahydro-quinoline-3-carboxylic acid ethyl ester]
- EC50 (primary rat hepatocytes): > 50 µM

SMILES: CCOC(=O)C1=C(COCCN)NC(C)=C(C(=O)OC)C1c1ccccc1Cl (stereo not shown) [Amlodipine, amlodipine, reference compound]
- Lethal Dose (Male SD rats): ˜12.7 mg/kg

SMILES: CCOC(=O)C1=C(COCCN)NC2=C(C(=O)CC(C)(C)C2)C1c1ccccn1 (stereo not shown) [Compound 9, 2-(2-amino-ethoxymethyl)-7,7-dimethyl-5-oxo-4-pyridin-2-yl-1,4,5,6,7,8-hexahydro-quinoline-3-carboxylic acid ethyl ester]
- percent normalized reduction in blood glucose relative to vehicle control ([1]; day 3, 50 mg/kg oral gavage once daily): 13.6%
- percent normalized reduction in blood glucose relative to vehicle control ([1]; day 7, 50 mg/kg oral gavage once daily): 21.1%
- EC50 (primary rat hepatocytes): > 50 µM

SMILES: CCOC(=O)C1=C(COCCN)NC2=C(C(=O)CC(C)(C)C2)C1c1ccccc1F (stereo not shown) [Compound 12, 2-(2-amino-ethoxymethyl)-4-(2-fluoro-phenyl)-7,7-dimethyl-5-oxo-1,4,5,6,7,8-hexahydro-quinoline-3-carboxylic acid ethyl ester]
- EC50 (primary rat hepatocytes): > 50 µM

SMILES: CCOC(=O)C1=C(COCCN)NC2=C(C(=O)CC(C)(C)C2)C1c1ccccc1OC (stereo not shown) [Compound 16, 2-(2-Amino-ethoxymethyl)-4-(2-methoxy-phenyl)-7,7-dimethyl-5-oxo-1,4,5,6,7,8-hexahydro-quinoline-3-carboxylic acid ethyl ester]
- EC50 (primary rat hepatocytes): > 50 µM

SMILES: CCOC(=O)C1=C(COCCN)NC2=C(C(=O)CC(C)(C)C2)[C@@H]1c1ccccc1Cl [Compound 36, S-(−)-2-(2-amino-ethoxymethyl)-4-(2-chloro-phenyl)-7,7-dimethyl-5-oxo-1,4,5,6,7,8-hexahydro-quinoline-3-carboxylic acid ethyl ester; complex with benzenesulfonic acid]
- blood glucose after oral glucose loading (male ob/ob mice; 25 mg/kg orally, glucose 3 g/kg, fasted ob/ob mice): approximately 200 mg/dl
- Serum Glucose % Pre-Treatment Baseline (C57BLKS/J-m+/+Lepr db; Day 3, Compound 36 10 mg/kg): 103.0 ± 2.4%
- Serum Glucose % Normalized Reduction (C57BLKS/J-m+/+Lepr db; Day 3, Compound 36 10 mg/kg): (2.6) %
- Serum Glucose % Pre-Treatment Baseline (C57BLKS/J-m+/+Lepr db; Day 3, Compound 36 25 mg/kg): 100.3 ± 2.8%
- Serum Glucose % Normalized Reduction (C57BLKS/J-m+/+Lepr db; Day 3, Compound 36 25 mg/kg): (5.3) %
- Serum Glucose % Pre-Treatment Baseline (C57BLKS/J-m+/+Lepr db; Day 6, Compound 36 10 mg/kg): 100.7 ± 4.6%
- Serum Glucose % Normalized Reduction (C57BLKS/J-m+/+Lepr db; Day 6, Compound 36 10 mg/kg): (7.2) %
- Serum Glucose % Pre-Treatment Baseline (C57BLKS/J-m+/+Lepr db; Day 6, Compound 36 25 mg/kg): 99.7 ± 5.4%
- Serum Glucose % Normalized Reduction (C57BLKS/J-m+/+Lepr db; Day 6, Compound 36 25 mg/kg): (8.2) %

SMILES: CC1(C)CC(=O)C2=C(C1)NC(COCCN)=C(C#N)C2c1ccccc1Cl (stereo not shown) [Compound 41, 2-(2-Amino-ethoxymethyl)-4-(2-chloro-phenyl)-7,7-dimethyl-5-oxo-1,4,5,6,7,8-hexahydro-quinoline-3-carbonitrile]
- serum glucose % Reduction relative to vehicle [2, 4]: (2) %
- Serum Glucose % Pre-Treatment Baseline [2, 4]: 93.3%
- serum glucose % Reduction relative to vehicle [2, 5]: (6) %
- Serum Glucose % Pre-Treatment Baseline [2, 5]: 94.1%

SMILES: CCOC(=O)C1=C(COCCN)NC2=C(C(=O)CC(C)(C)C2)C1c1ccccc1O (stereo not shown) [Compound 64, 2-(2-Amino-ethoxymethyl)-4-(2-hydroxy-phenyl)-7,7-dimethyl-5-oxo-1,4,5,6,7,8-hexahydro-quinoline-3-carboxylic acid ethyl ester]
- serum glucose % Reduction relative to vehicle [2, 4]: (10) %
- Serum Glucose % Pre-Treatment Baseline [2, 4]: 85.9%
- serum glucose % Reduction relative to vehicle [2, 5]: (12) %
- Serum Glucose % Pre-Treatment Baseline [2, 5]: 88.6%
- EC50 (primary rat hepatocytes): > 50 µM

SMILES: CCOC(=O)C1=C(COCCN)N(C)C2=C(C(=O)CC(C)(C)C2)C1c1cccnc1 (stereo not shown) [Compound 66, 2-(2-Amino-ethoxymethyl)-1,7,7-trimethyl-5-oxo-4-pyridin-3-yl-1,4,5,6,7,8-hexahydro-quinoline-3-carboxylic acid ethyl ester]
- EC50 (primary rat hepatocytes): > 50 µM

SMILES: CCOC(=O)C1=C(COCCN)NC2=C(C(=O)CC(C)(C)C2)C1c1ccco1 (stereo not shown) [Compound 96, 2-(2-Amino-ethoxymethyl)-4-furan-2-yl-7,7-dimethyl-5-oxo-1,4,5,6,7,8-hexahydro-quinoline-3-carboxylic acid ethyl ester]
- EC50 (primary rat hepatocytes): > 50 µM

SMILES: CCOC(=O)C1=C(C)NC2=C(C(=O)CC(C)(C)C2)C1c1cccnc1 (stereo not shown) [Compound 202, 2,7,7-Trimethyl-4-(pyrid-3-yl)-5-oxo-1,4,5,6,7,8-hexahydro-quinoline-3-carboxylic acid ethyl ester]
- EC50 (primary rat hepatocytes): > 50 µM

SMILES: CCOC(=O)C1=C(COCCN)NC2=C(C(=O)CC(C)(C)C2)C1c1ccc(C)o1 (stereo not shown) [Compound 206, 2-(2-Amino-ethoxymethyl)-7,7-dimethyl-4-(5-methyl-furan-2-yl)-5-oxo-1,4,5,6,7,8-hexahydro-quinoline-3-carboxylic acid ethyl ester]
- EC50 (primary rat hepatocytes): > 50 µM

SMILES: CC1=C(C#N)C(C2CC2)C2=C(CC(C)(C)CC2=O)N1 (stereo not shown) [Compound 222, 2,7,7-Trimethyl-4-cyclopropyl-5-oxo-1,4,5,6,7,8-hexahydro-quinoline-3-carbonitrile]
- EC50 (primary rat hepatocytes): > 50 µM

SMILES: CN(C)C(=N)N=C(N)N [metformin]
- Serum Glucose % Pre-Treatment Baseline (db/db mice; [6]): 68.5 ± 3.7%
- serum glucose % Reduction relative to vehicle (db/db mice; [6]): (26.4) %
- Serum Glucose % Pre-Treatment Baseline (db/db mice; [7]): 72.2 ± 5.7%
- serum glucose % Reduction relative to vehicle (db/db mice; [7]): (28.7) %
- blood glucose after oral glucose loading (male ob/ob mice; metformin 100 mg/kg (FIG. 1), glucose 3 g/kg, fasted ob/ob mice): approximately 200 mg/dl
- change in vivo at 150 mg/kg [3]: -48.7%

SMILES: CN(CCOc1ccc(CC2SC(=O)NC2=O)cc1)c1ccccn1 (stereo not shown) [rosiglitazone, reference compound]
- Serum Glucose % Pre-Treatment Baseline (db/db mice; [8]): 72.2 ± 6.5%
- serum glucose % Reduction relative to vehicle (db/db mice; [8]): (22.4) %
- Serum Glucose % Pre-Treatment Baseline (db/db mice; [9]): 61.2 ± 6.6%
- serum glucose % Reduction relative to vehicle (db/db mice; [9]): (39.5) %
- blood glucose after oral glucose loading (male ob/ob mice; rosiglitazone 1 mg/kg (FIG. 1), 4 hours post-glucose loading): ~300 mg/dL
- Serum Glucose % Pre-Treatment Baseline (C57BLKS/J-m+/+Lepr db; Day 3, rosiglitazone 0.5 mg/kg): 90.3 ± 3.1%
- Serum Glucose % Normalized Reduction (C57BLKS/J-m+/+Lepr db; Day 3, rosiglitazone 0.5 mg/kg): (15.3) %
- Serum Glucose % Pre-Treatment Baseline (C57BLKS/J-m+/+Lepr db; Day 6, rosiglitazone 0.5 mg/kg): 79.1 ± 1.9%
- Serum Glucose % Normalized Reduction (C57BLKS/J-m+/+Lepr db; Day 6, rosiglitazone 0.5 mg/kg): 28.8%
- Serum Glucose % Normalized Reduction (C57BLKS/J-m+/+Lepr db; Day 6, rosiglitazone 0.5 mg/kg, listed as Rosiglitazone): (28.8) %

— patent US20050203119A1, “Dihydropyridine compounds for treating or preventing metabolic disorders” (priority 2003, published 2005)
